Here are results for 5 substances from patent US9233143B2, “Medicinal agent for preventing exacerbation of malignant tumor, comprising combination of natriuretic peptide receptor GC-A and GC-B agonists” (National Cerebral and Cardiovascular Center, priority 2011, dated 2016).

The subject of one test is tumor cells. Conditions: reports by Vesely et al.; cited from earlier work.
Test [1] has as its system A549 cells. In words: Changes in the intracellular cGMP level in response to natriuretic peptide stimulus, A549 cells. Type of test: cell-based, human. The note with it: 1×10^−11 M to 1×10^−6 M, 10 minutes, FIG. 1A. The protocol:
Lung adenocarcinoma cell line, A549 cells, was obtained from ATCC (Manassas, Va.). The cells were cultured in DMEM culture medium (Invitrogen, Carlsbad, Va.) containing 10% FCS under 5% CO2 at 37° C. The amounts of the culture medium were 1.5 mL for each well of a 6-well dish, 400 μL for each well of a 24-well dish, and 150 μL for each well of a 96-well dish. In the Examples below, unless otherwise stated, the same culture medium and culture conditions were adopted.
(§1) The A549 cells were cultured in a 24-well dish at 4×10^4 cells/well, and the culture medium was replaced with DMEM culture medium free from FCS the next day. The CAFs were cultured in a 24-well dish at 1×10^4 cells/well, and the culture medium was replaced with DMEM culture medium containing 1% FCS the next day.
(§2) To these culture media, solutions of hANP, hBNP, and hCNP-22 (final concentration: ten-fold serial dilution from 1×10^−11 M to 1×10^−6 M, the same amount of physiological saline was used as a control) were separately added. After 10 minutes had passed, 400 μL of cooled 70% ethanol (containing 0.1 N hydrochloric acid) was added, and ultrasonication was performed for a short time. The treated solution was lyophilized, and the cGMP level was measured using Cyclic GMP Assay kit (made by Yamasa Corp.).

Another test relates to CAFs. In words: Production of cancer exacerbation factors by CAFs under TGF-β1 stimulus (quantitative RT-PCR). It counts as cell-based, human. The note with it: test substance 1 μM, TGF-β1 0.125-2.0 ng/mL, 24 hours, mRNA level, FIG. 5. The protocol:
Using a 6-well dish, the CAFs were cultured at 5×10^4 cells/well, and the culture medium was replaced with DMEM culture medium containing 1% FBS the next day. After 24 hours of culture, the cells were used in the following experiment.
A CNP group (a hCNP-22 solution was added (final concentration: 1 μM)) and a control group (the same amount of physiological saline was added) were prepared, and after 2 hours from the addition (of the hCNP-22 solution or the physiological saline) to the CAFs, TGF-β1 was added so that the final concentration would be 0.125, 0.25, 0.5, 1.0, and 2.0 ng/mL. After 24 hours had passed, total RNA was recovered using TRIZOL total RNA isolation reagent, cDNA was synthesized using reverse transcriptase, and the mRNA levels of VEGF-A, TGF-β1, TNF-α, and IL-6 were measured by quantitative RT-PCR.

Test [2] relates to cancer-associated fibroblasts (CAFs). Nature of the test: Changes in the intracellular cGMP level in response to natriuretic peptide stimulus, CAFs. It counts as cell-based, human. The note with it: 1×10^−11 M to 1×10^−6 M, 10 minutes, FIG. 1B. The protocol: For obtaining CAFs (cancer-associated fibroblasts), tissue harvested from a patient having lung cancer surgery was subjected to primary culture after the consent of the patient was obtained. The cells were then cultured in DMEM culture medium containing 10% FCS under 5% CO2 at 37° C., and the cells of the 5th and earlier passages were used.
as §1, §2

The subject of test [3] is A549 cells. In words: EMT induced by TGF-β1 in A549 cells (morphology, quantitative RT-PCR). Type of test: cell-based, human. The note with it: for effect of suppressing EMT: concentration of 1 μM, summary of Example 2. The protocol: Using a 6-well dish, the A549 cells were cultured at 1×10^5 cells/well, and the culture medium was replaced with DMEM culture medium free from FBS the next day. After 24 hours of culture, the cells were used in the following experiment.
An ANP group (a hANP solution was added (final concentration: 1 μM)) and a control group (the same amount of physiological saline was added) were prepared, and after 2 hours from the addition (of the hANP solution or the physiological saline) to the A549 cells, TGF-β1 was added so that the final concentration would be 0.125, 0.25, 0.5, 1.0, and 2.0 ng/mL. After 24 hours had passed, the morphological change in the cells was observed under a microscope and photographed (FIG. 2).
Then, total RNA was recovered from the above prepared ANP group and control group using TRIZOL total RNA isolation reagent (made by Invitrogen), cDNA was synthesized using reverse transcriptase, and the mRNA levels of E-cadherin, N-cadherin, VEGF-A, PDGF-B, TNF-α, and IL-6 were measured by quantitative RT-PCR. The mRNA level of each intended gene was calculated as the relative ratio of the mRNA amount of the gene to that of the housekeeping gene 36B4 measured at the same time. In the Examples below, unless otherwise stated, the mRNA levels were obtained through the same calculation.
It is known that in EMT, the expression of E-cadherin decreases while the expression of N-cadherin increases. The expression ratio of the two kinds of cadherin (N-cad/E-cad) is considered to be useful as an indicator of the degree of EMT.

The next test deals with A549 cells and CAFs. In words: Mouse models having transplanted cancer cells and CAFs, administration started after tumor tissue was established (Example 6). Conditions: hCNP-22 alone 2.5 μg/kg/min, started 2 weeks after transplantation, 4 weeks, FIG. 10. Type of test: in vivo. The protocol: In this Example and Example 6, 5-week-old male immunodeficient mice (KSN mice, Japan SLC, Inc.) were used. The osmotic pumps used were MODEL2004 (for 28-day administration) made by ALZET (Cupertino, Calif.). A mixed suspension of the A549 cells and the CAFs was prepared using DMEM free from FBS so as to contain the A549 cells at 1×10^6 cells/100 μL and the CAFs at 0.5×10^6 cells/100 μL. The mixed suspension in an amount of 100 μL per mouse was subcutaneously injected in the back of the immunodeficient mice. […] After 2 weeks of observation from the injection of the cell suspension, the mice to which the mixed suspension had been injected were randomly divided into 4 groups (control group, ANP group, CNP group, and ANP+CNP group), and an osmotic pump appropriately adjusted for each group as shown below was subcutaneously implanted to start administration. • Control group and A549 group: physiological saline was administered • ANP group: hANP was administered at 0.5 μg/kg/min • CNP group: hCNP-22 was administered at 2.5 μg/kg/min • ANP+CNP group: hANP was administered at 0.5 μg/kg/min and hCNP-22 was administered at 2.5 μg/kg/min Observation was further continued for 4 weeks after the start of administration, the tumor size at the cell injection site was measured weekly, and tumor volume was calculated in the same way as in Example 5 (FIG. 10).

The subject of test [4] is A549 cells co-cultured with CAFs. Nature of the test: Co-culture system of cancer cells and CAFs (mRNA of the A549 cells). Type of test: cell-based, human. Conditions: each test substance 1 μM. The protocol:
In a 6-well dish, the A549 cells were cultured at 1×10^5 cells/well. The culture medium was replaced with DMEM culture medium free from FBS the next day, and the cells were further cultured for 24 hours. In a 6-well dish having a cell culture insert (1.0 μm pore size, made by BD), the CAFs were cultured at 5×10^4 cells/well. The culture medium was replaced with DMEM culture medium containing 1% FBS the next day, and the cells were further cultured for 24 hours. To each culture medium of the two kinds of cells, test substances were separately added to prepare test substance addition groups. Control groups with no test substance were also prepared. After two hours of culture, these were subjected to co-culture. The test substance addition groups were ANP groups containing hANP at a final concentration of 1 μM, CNP groups containing hCNP-22 at a final concentration of 1 μM, and ANP+CNP groups containing both hANP and hCNP-22 each at a final concentration of 1 μM. Each of the groups were prepared by adding the test substance to each culture medium of the two kinds of cells.
On the 6-well dish of A549 cells treated as above, the above cell culture insert with the CAFs was placed to prepare a co-culture experimental model where only the culture media could pass through the cell culture insert. After 24, 48, and 72 hours of culture, total RNA of the A549 cells only was recovered, cDNA was synthesized, and the mRNA levels of E-cadherin, N-cadherin, VEGF-A, PDGF-B, and IL-6 were measured by quantitative RT-PCR (FIGS. 6 to 8). The experiment using ANP alone (ANP groups: FIG. 6), the experiment using CNP alone (CNP groups: FIG. 7), and the experiment using ANP and CNP in combination (ANP+CNP group: FIG. 8) were independently conducted, where control groups were separately set for each experiment.

Where [5] appears, read: A549 cells, test substance 1 μM, mRNA level, FIG. 3.

In the case of “kalliuretic peptide: peptide in reports by Vesely et al., sequence not likely to contribute to binding to GC-A (SSDRSALLKSKLRALLTAPR; Kaliuretic peptide; UniProt P01160 104-123, looked up)”, in the test with tumor cells, the “growth-suppressing activity on tumor (cancer) cells” value (“growth-suppressing activity” for short) is “the same or stronger growth-suppressing activity”.

Take “hBNP: 32-amino acid BNP of human origin (SPKMVQGSGCFGRKMDRISSSSGLGCKVLRRH: SEQ ID NO: 3), GC-A agonist”: in the test with A549 cells [1], the “intracellular cGMP level of the A549 cells” value is recorded as “increased the intracellular cGMP level of the A549 cells in a concentration-dependent manner”. The “gene expression of the growth factors (VEGF-A, TGF-β1) and the inflammatory cytokines (TNF-α, IL-6) increased by the TGF-β1 stimulus in CAFs” value in the test on CAFs is “did not show any effect on CAFs”. Moreover, the “cGMP level of the CAFs” value in test [2] is recorded as “did not show such an action”. For the same substance, the “growth-suppressing activity” value in the test on tumor cells is given as “does not have such a growth-suppressing activity”. For the same substance, the “effect of suppressing EMT” value with A549 cells [3] is reported as “significantly suppressing EMT”.

In the case of “long acting natriuretic peptide: peptide in reports by Vesely et al., sequence not likely to contribute to binding to GC-A (NPMYNAVSNADLMDFKNLLDHLEEKMPLED; Long-acting natriuretic peptide; UniProt P01160 26-55, looked up)”, in the test on tumor cells, the “growth-suppressing activity” value was “the same or stronger growth-suppressing activity”.

On to “hCNP-22: 22-amino acid CNP-22 of human origin (GLSKGCFGLKLDRIGSMSGLGC: SEQ ID NO: 7), GC-B agonist (GLSKGCFGLKLDRIGSMSGLGC; listed as Homo sapiens)”, for which the “intracellular cGMP level of the A549 cells” value in the test with A549 cells [1] was “did not show such increase”. For the same substance, the “gene expression of the growth factors (VEGF-A, TGF-β1) and the inflammatory cytokines (TNF-α, IL-6) increased by the TGF-β1 stimulus in CAFs” value in the test with CAFs is listed as “significantly suppressed”. Besides, in test [2], the “cGMP level of the CAFs” value is “increased the cGMP level of the CAFs in a concentration-dependent manner”. Moreover, the “tumor growth as compared with the control group” value with A549 cells and CAFs is reported as “showed an effect of tumor growth suppression”. In addition, the “gene expression of the growth factors (VEGF-A, PDGF-B) and inflammatory cytokine (IL-6) increased in the co-culture” value in test [4] (A549 cells co-cultured with CAFs 24, 48, 72 hours, FIGS. 6 to 8) is reported as “could not suppress”. In test [4] (A549 cells co-cultured with CAFs, FIGS. 6D, 7D, 8D), the “expression ratio of N-cadherin/E-cadherin (N-cad/E-cad), indicator of EMT, in the co-culture” value is “did not show any effect”. Also, the “morphological change in the cells associated with EMT induced by the TGF-β1 stimulus” value with A549 cells [3] (A549 cells, test substance 1 μM, 24 hours after TGF-β1, FIG. 2) is on record as “the same as those of the control”. In the test with A549 cells [3] (A549 cells, test substance 1 μM, TGF-β1 0.125-2.0 ng/mL, 24 hours, mRNA level, FIG. 3), the “gene expression of the growth factors (VEGF-A, PDGF-B) and the inflammatory cytokines (TNF-α, IL-6) increased by EMT induced by the TGF-β1 stimulus” value is “the same as those of the control”. Moreover, in the test on A549 cells [3] (setting [5]), the “decrease in the expression of E-cadherin induced by the TGF-β1 stimulus” value is on record as “the same as those of the control” and the “increase in the expression of N-cadherin induced by the TGF-β1 stimulus” value is reported as “the same as those of the control”. The “effect of suppressing EMT” value in the test with A549 cells [3] is reported as “did not show such an effect at all”.

As for “vessel dilator: peptide in reports by Vesely et al., sequence not likely to contribute to binding to GC-A (EVVPPQVLSEPNEEAGAALSPLPEVPPWTGEVSPAQR; Vessel dilator; UniProt P01160 56-92, looked up)”, the “growth-suppressing activity” value in the test on tumor cells is given as “the same or stronger growth-suppressing activity”.
